This passage reports IC50 results from patent US12371454B2, “Cyclic peptide compound having Kras inhibitory action” (priority 2019, dated 2025).

Positions of bridges follow the written chain, without caps; N, C: chain ends. Non-standard residues stand in square brackets, D forms with d. Residues, ends and D or L forms follow the SMILES beside them. *: point of attachment. hPhe(3-Cl-4-CF3) = N[C@@H](CCc1ccc(C(F)(F)F)c(Cl)c1)C(=O)O; NMePhe(4-CF3) = CN[C@@H](Cc1ccc(C(F)(F)F)cc1)C(=O)O; NMePhe(4-F) = CN[C@@H](Cc1ccc(F)cc1)C(=O)O; NMe3Pal = CN[C@@H](Cc1cccnc1)C(=O)O; NMeCha = CN[C@@H](CC1CCCCC1)C(=O)O; NMeAhp(2) = CCCCC[C@H](NC)C(=O)O; NMeChg = CN[C@H](C(=O)O)C1CCCCC1; NMeF = CN[C@@H](Cc1ccccc1)C(=O)O; NMeI = CC[C@H](C)[C@H](NC)C(=O)O; NMeD = CN[C@@H](CC(=O)O)C(=O)O; dNMeD = CN[C@H](CC(=O)O)C(=O)O; NMeL = CN[C@@H](CC(C)C)C(=O)O; Ahp(2) = CCCCC[C@H](N)C(=O)O; NMeV = CN[C@H](C(=O)O)C(C)C; d(β3hA) = C[C@@H](N)CC(=O)O; NMeAbu = CC[C@H](NC)C(=O)O; NMeS = CN[C@@H](CO)C(=O)O; Morpholide = C1CN(*)CCO1; NMeA = CN[C@@H](C)C(=O)O; Nle = CCCC[C@H](N)C(=O)O; Piperidide = C1CCN(*)CC1; Pyrrolidide = C1CCN(*)C1; dNMeA = CN[C@H](C)C(=O)O; Ac5c = NC1(C(=O)O)CCCC1; Aze = O=C(O)[C@@H]1CCN1; Sar = CNCC(=O)O; Propyl = CCC*

Usually IC50 stands for the concentration at which inhibition is half-maximal.

The target of the assay is T1, Kras and SOS1 (biotin-tagged human Kras loaded with GDP, His-tagged human SOS1) (Homo sapiens, UniProt P01116, G12D).
T1 construct: made in house; host or cells: E. coli (stated for Kras only)
T1 sequence (P01116 1-188 isoform P01116-2 G12D): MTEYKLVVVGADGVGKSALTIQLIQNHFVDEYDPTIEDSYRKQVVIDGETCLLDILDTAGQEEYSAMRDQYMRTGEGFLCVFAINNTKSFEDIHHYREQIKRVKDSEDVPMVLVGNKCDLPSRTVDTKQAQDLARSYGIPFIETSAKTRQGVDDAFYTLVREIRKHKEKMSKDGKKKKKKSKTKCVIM
Kind of assay: Protein-protein interaction inhibition between Kras and SOS1 (KrasGl2D-SOS PPI) using AlphaScreen. The class given is binding. To be noted: AlphaScreen; biotin-tagged human Kras loaded with GDP, His-tagged human SOS1; read-out: KRAS G12D-SOS PPI IC50. In short, it runs like this:
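Donor beads (nickel) hold His-SOS1; acceptor beads (streptavidin) hold biotin-Kras bound to GDP. Signal measured at 520-620 nm following 680 nm excitation.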
For orientation: Bead proximity is the source of the signal in Alpha formats.
Take `CC[C@H](C)[C@@H]1NC(=O)[C@H](CC(C)C)N(C)C(=O)C[C@@H](C(=O)N2CCCCC2)N(C)C(=O)[C@H](C2CCCCC2)N(C)C(=O)C2(CCCC2)NC(=O)[C@@H]2CCCN2C(=O)[C@H](CCc2ccc(C(F)(F)F)c(Cl)c2)NC(=O)CN(C)C(=O)[C@H](C)N(C)C(=O)CN(C)C(=O)CN(C)C1=O` [Compound 1681] ([NMeL]I[Sar][Sar][NMeA][Sar][hPhe(3-Cl-4-CF3)]P[Ac5c][NMeChg][NMeD]-Piperidide; lactam N-11): the IC50 amounted to 3.1 nM.

Take `CC[C@H](C)[C@@H]1NC(=O)[C@H](CC(C)C)N(C)C(=O)C[C@@H](C(=O)N2CCCCC2)N(C)C(=O)[C@H](C2CCCCC2)N(C)C(=O)C2(CCCC2)NC(=O)[C@@H]2CCCN2C(=O)[C@H](CCc2ccc(C(F)(F)F)c(Cl)c2)NC(=O)CN(C)C(=O)[C@H](CO)N(C)C(=O)CN(C)C(=O)CN(C)C1=O` [Compound 1687] ([NMeL]I[Sar][Sar][NMeS][Sar][hPhe(3-Cl-4-CF3)]P[Ac5c][NMeChg][NMeD]-Piperidide; lactam N-11): the IC50 was found to be 4.2 nM.

Turning to `CC[C@H](C)[C@@H]1NC(=O)[C@H](C)N(C)C(=O)C[C@@H](C)NC(=O)[C@H](C2CCCCC2)N(C)C(=O)C2(CCCC2)NC(=O)[C@@H]2CCCN2C(=O)[C@H](CCc2ccc(C(F)(F)F)c(Cl)c2)NC(=O)CN(C)C(=O)[C@H](CC2CCCCC2)N(C)C(=O)CN(C)C(=O)CN(C)C1=O` [Compound 1688] (cyclo([Ac5c][NMeChg][d(β3hA)][NMeA]I[Sar][Sar][NMeCha][Sar][hPhe(3-Cl-4-CF3)]P)), the IC50 stood at 24 nM.

For the molecule `CC[C@H](C)[C@@H]1NC(=O)[C@H](C)N(C)C(=O)C[C@@H](C)NC(=O)[C@H](C(C)C)N(C)C(=O)C2(CCCC2)NC(=O)[C@@H]2CCCN2C(=O)[C@H](CCc2ccc(C(F)(F)F)c(Cl)c2)NC(=O)[C@@H](C)N(C)C(=O)[C@H](Cc2ccccc2)N(C)C(=O)CN(C)C(=O)CN(C)C1=O` [Compound 1691] (cyclo([Ac5c][NMeV][d(β3hA)][NMeA]I[Sar][Sar][NMeF][dNMeA][hPhe(3-Cl-4-CF3)]P)), the IC50 is 120 nM.

Turning to `CCCCC[C@@H]1NC(=O)[C@H](CC(C)C)N(C)C(=O)C[C@@H](C(=O)N2CCCCC2)N(C)C(=O)[C@H](C2CCCCC2)N(C)C(=O)C2(CCCC2)NC(=O)[C@@H]2CCCN2C(=O)[C@H](CCc2ccc(C(F)(F)F)c(Cl)c2)NC(=O)CN(C)C(=O)[C@H](CC2CCCCC2)N(C)C(=O)CN(C)C(=O)CN(C)C1=O` [Compound 1692] ([NMeL][Ahp(2)][Sar][Sar][NMeCha][Sar][hPhe(3-Cl-4-CF3)]P[Ac5c][NMeChg][NMeD]-Piperidide; lactam N-11), the IC50 came to 3.5 nM.

Turning to `CC[C@H](C)[C@@H]1NC(=O)[C@H](C)N(C)C(=O)C[C@@H](C(=O)N2CCCCC2)N(C)C(=O)[C@H](C(C)C)N(C)C(=O)C2(CCCC2)NC(=O)[C@@H]2CCCN2C(=O)[C@H](CCc2ccc(C(F)(F)F)c(Cl)c2)NC(=O)CN(C)C(=O)[C@H](Cc2ccc(F)cc2)N(C)C(=O)[C@@H]2CCCN2C(=O)CN(C)C1=O` [Compound 1698] ([NMeA]I[Sar]P[NMePhe(4-F)][Sar][hPhe(3-Cl-4-CF3)]P[Ac5c][NMeV][NMeD]-Piperidide; lactam N-11), the IC50 was 1.2 nM.

`CC[C@H](C)[C@@H]1NC(=O)[C@H](C)N(C)C(=O)C[C@@H](C(=O)N2CCOCC2)N(C)C(=O)[C@H](C2CCCCC2)N(C)C(=O)C2(CCCC2)NC(=O)[C@H](Cc2cccnc2)N(C)C(=O)[C@H](CCc2ccc(C(F)(F)F)c(Cl)c2)NC(=O)CN(C)C(=O)[C@H](CC2CCCCC2)N(C)C(=O)[C@@H]2CCN2C(=O)CN(C)C1=O` [Compound 1703] ([NMeA]I[Sar][Aze][NMeCha][Sar][hPhe(3-Cl-4-CF3)][NMe3Pal][Ac5c][NMeChg][NMeD]-Morpholide; lactam N-11): the IC50 is 0.41 nM.

As for `CC[C@H](C)[C@@H]1NC(=O)[C@H](C)N(C)C(=O)C[C@@H](C(=O)N2CCCC2)N(C)C(=O)[C@H](C(C)C)N(C)C(=O)C2(CCCC2)NC(=O)[C@@H]2CCCN2C(=O)[C@H](CCc2ccc(C(F)(F)F)c(Cl)c2)NC(=O)[C@@H](C)N(C)C(=O)[C@H](CC2CCCCC2)N(C)C(=O)[C@@H]2CCCN2C(=O)CN(C)C1=O` [Compound 1715] ([NMeA]I[Sar]P[NMeCha][dNMeA][hPhe(3-Cl-4-CF3)]P[Ac5c][NMeV][NMeD]-Pyrrolidide; lactam N-11), the IC50 is 2.4 nM.

`CCCCC[C@H]1C(=O)N(C)[C@H](C(=O)N2CCCCC2)CC(=O)N(C)[C@@H](CC(C)C)C(=O)N[C@@H]([C@@H](C)CC)C(=O)N(C)CC(=O)N(C)CC(=O)N(C)[C@@H](CC2CCCCC2)C(=O)N(C)CC(=O)N[C@@H](CCc2ccc(C(F)(F)F)c(Cl)c2)C(=O)N2CCC[C@H]2C(=O)NC2(CCCC2)C(=O)N1C` [Compound 1719] ([NMeL]I[Sar][Sar][NMeCha][Sar][hPhe(3-Cl-4-CF3)]P[Ac5c][NMeAhp(2)][NMeD]-Piperidide; lactam N-11): the 50% inhibitory concentration (IC50) was 18 nM.

As to `CCCC[C@@H]1NC(=O)[C@H](CC(C)C)N(C)C(=O)C[C@@H](C(=O)N2CCCCC2)N(C)C(=O)[C@H](C2CCCCC2)N(C)C(=O)C2(CCCC2)NC(=O)[C@@H]2CCCN2C(=O)[C@H](CCc2ccc(C(F)(F)F)c(Cl)c2)NC(=O)CN(C)C(=O)[C@H](CC2CCCCC2)N(C)C(=O)CN(C)C(=O)CN(C)C1=O` [Compound 1723] ([NMeL][Nle][Sar][Sar][NMeCha][Sar][hPhe(3-Cl-4-CF3)]P[Ac5c][NMeChg][NMeD]-Piperidide; lactam N-11), the IC50 was 3.6 nM.

Regarding `CC[C@H](C)[C@@H]1NC(=O)[C@H](C)N(C)C(=O)C[C@@H](C(=O)N2CCCCC2)N(C)C(=O)[C@H](C(C)C)N(C)C(=O)C2(CCCC2)NC(=O)[C@@H]2CCCN2C(=O)[C@H](CCc2ccc(C(F)(F)F)c(Cl)c2)NC(=O)[C@H]2CCCN2C(=O)[C@H](Cc2ccc(F)cc2)N(C)C(=O)[C@@H]2CCCN2C(=O)CN(C)C1=O` [Compound 1725] ([NMeA]I[Sar]P[NMePhe(4-F)][dP][hPhe(3-Cl-4-CF3)]P[Ac5c][NMeV][NMeD]-Piperidide; lactam N-11), the IC50 turned out to be 23 nM.

Turning to `CC[C@H](C)[C@@H]1NC(=O)[C@H](C)N(C)C(=O)C[C@@H](C)NC(=O)[C@H](C(C)C)N(C)C(=O)C2(CCCC2)NC(=O)[C@@H]2CCCN2C(=O)[C@H](CCc2ccc(C(F)(F)F)c(Cl)c2)NC(=O)[C@H]2CCCN2C(=O)[C@H](Cc2ccccc2)N(C)C(=O)[C@@H]2CCCN2C(=O)CN(C)C1=O` [Compound 1730] (cyclo([Ac5c][NMeV][d(β3hA)][NMeA]I[Sar]P[NMeF][dP][hPhe(3-Cl-4-CF3)]P)), the IC50 is 35 nM.

For the molecule `CC[C@H](C)[C@@H]1NC(=O)[C@H](C)N(C)C(=O)C[C@@H](C)NC(=O)[C@H](C(C)C)N(C)C(=O)C2(CCCC2)NC(=O)[C@@H]2CCCN2C(=O)[C@H](CCc2ccc(C(F)(F)F)c(Cl)c2)NC(=O)CN(C)C(=O)[C@H](Cc2ccc(F)cc2)N(C)C(=O)[C@@H]2CCCN2C(=O)CN(C)C1=O` [Compound 1732] (cyclo([Ac5c][NMeV][d(β3hA)][NMeA]I[Sar]P[NMePhe(4-F)][Sar][hPhe(3-Cl-4-CF3)]P)), the IC50 came to 5.5 nM.

Regarding `CC[C@H](C)[C@@H]1NC(=O)[C@H](CC(C)C)N(C)C(=O)C[C@H](C(=O)N2CCCC2)N(C)C(=O)[C@H]([C@@H](C)CC)N(C)C(=O)C2(CCCC2)NC(=O)[C@@H]2CCCN2C(=O)[C@H](CCc2ccc(C(F)(F)F)c(Cl)c2)NC(=O)CN(C)C(=O)[C@H](Cc2ccc(C(F)(F)F)cc2)N(C)C(=O)[C@@H]2CCN2C(=O)[C@H](C)N(C)C1=O` [Compound 1734] ([NMeL]I[NMeA][Aze][NMePhe(4-CF3)][Sar][hPhe(3-Cl-4-CF3)]P[Ac5c][NMeI][dNMeD]-Pyrrolidide; lactam N-11), the IC50 was determined as 71 nM.

For the molecule `CCCOC[C@@H]1NC(=O)[C@H](CC(C)C)N(C)C(=O)C[C@@H](C(=O)N2CCCCC2)N(C)C(=O)[C@H](C2CCCCC2)N(C)C(=O)C2(CCCC2)NC(=O)[C@@H]2CCCN2C(=O)[C@H](CCc2ccc(C(F)(F)F)c(Cl)c2)NC(=O)CN(C)C(=O)[C@H](CC2CCCCC2)N(C)C(=O)CN(C)C(=O)CN(C)C1=O` [Compound 1736] ([NMeL]S(Propyl)[Sar][Sar][NMeCha][Sar][hPhe(3-Cl-4-CF3)]P[Ac5c][NMeChg][NMeD]-Piperidide; lactam N-11), the IC50 stood at 4.3 nM.

Regarding `CC[C@H](C)[C@@H]1NC(=O)[C@H](CC(C)C)N(C)C(=O)C[C@@H](C(=O)N2CCCCC2)N(C)C(=O)[C@H](CC)N(C)C(=O)C2(CCCC2)NC(=O)[C@@H]2CCCN2C(=O)[C@H](CCc2ccc(C(F)(F)F)c(Cl)c2)NC(=O)CN(C)C(=O)[C@H](CC2CCCCC2)N(C)C(=O)CN(C)C(=O)CN(C)C1=O` [Compound 1741] ([NMeL]I[Sar][Sar][NMeCha][Sar][hPhe(3-Cl-4-CF3)]P[Ac5c][NMeAbu][NMeD]-Piperidide; lactam N-11), the IC50 is 3.8 nM.

For the molecule `CC[C@H](C)[C@@H]1NC(=O)[C@H](CC(C)C)N(C)C(=O)C[C@@H](C(=O)N2CCCCC2)N(C)C(=O)[C@H](C2CCCCC2)N(C)C(=O)C2(CCCC2)NC(=O)[C@@H]2CCCN2C(=O)[C@H](CCc2ccc(C(F)(F)F)c(Cl)c2)NC(=O)CN(C)C(=O)[C@H](CC)N(C)C(=O)CN(C)C(=O)CN(C)C1=O` [Compound 1743] ([NMeL]I[Sar][Sar][NMeAbu][Sar][hPhe(3-Cl-4-CF3)]P[Ac5c][NMeChg][NMeD]-Piperidide; lactam N-11), the IC50 was 1.3 nM.

Regarding `CC[C@H](C)[C@@H]1NC(=O)[C@H](C)N(C)C(=O)C[C@@H](C(=O)N2CCCCC2)N(C)C(=O)[C@H](C(C)C)N(C)C(=O)C2(CCCC2)NC(=O)[C@@H]2CCCN2C(=O)[C@H](CCc2ccc(C(F)(F)F)c(Cl)c2)NC(=O)CN(C)C(=O)[C@H](Cc2ccccc2)N(C)C(=O)[C@@H]2CCCN2C(=O)CN(C)C1=O` [Compound 1753] ([NMeA]I[Sar]P[NMeF][Sar][hPhe(3-Cl-4-CF3)]P[Ac5c][NMeV][NMeD]-Piperidide; lactam N-11), the IC50 was 2.5 nM.
